Experimental data published in patent publication US20190365698A1, “Use of Antineoplastic Agents to Stimulate the Immune System for Treatment of Cancer” (CRITITECH, INC., priority 2018, published 2019).
Values after ≈ are worked out from the molar mass of the structure shown. Values joined by “and” are separate entries in the source; they are usually repeats but may differ in a detail not shown here. Identical values can stand only once. Marks after values point to notes of the source that are not given here. One block for each molecule: values may come before it.

Experiments:
786-O cell line [1] = assay: Renal cell adenocarcinoma xenograft: histology and immunohistochemistry (viable carcinoma size, necrosis, lymphohistiocytic infiltrate); type: in vivo, Sprague-Dawley Rag2; Il2rg null (SRG) rat
Source text: Microscopic Examination: Tissues fixed with 10% NBF were embedded in paraffin. Each tumor was cut into 2-3 pieces and embedded and sectioned together.

786-O cell line [2] = assay: Rat xenograft model of human renal cell adenocarcinoma: tumor volume; type: in vivo, Sprague-Dawley Rag2; Il2rg null (SRG) rat; conditions: IV docetaxel, 3 weekly cycles
[3] = tested on: UM-UC-3 bladder cancer cell line; assay: Human bladder cancer (UM-UC-3) mouse xenograft study: tumor volume; type: in vivo, Hsd:Athymic Nude-Foxnlnu nude mice
Protocol: Tumor volume was determined with calipers. […] Animals were weighed 2×/week.
At day 18 after tumor implant, when average tumor size was between 50-325 mm^3, animals were sorted into five groups with equal average tumor sizes and were treated as shown in Table 25 below.
The second treatments (2nd cycle) occurred 7 days following first treatment (1st cycle) and third treatments (3rd cycle) occurred 14 days following the first treatment. The docetaxel solution IV was administered via the tail vein.
Vehicle (Control): Diluted 1 ml of the 1% Polysorbate 80/8% Ethanol in normal saline (0.9% Sodium Chloride for Injection) reconstitution solution with 1.5 mL of normal saline (0.9% Sodium Chloride for Injection, USP). […] Vigorously hand shook the vial with inversions for 1 minute. […] Allowed the suspension to sit undisturbed for at least 5 minutes to reduce entrapped air and foam. […] Vortexed to mix.

[4] = tested on: UM-UC-3 bladder cancer cell line; assay: Bladder cancer xenograft study: histology and immunohistochemistry (viable carcinoma size, necrosis, macrophage infiltrate, TLS, necropsy volume)
Protocol: Tumors were implanted with 1×10^7 cells (1004, volume) into right flank (PBS 1:1 with matrigel: BD356234). Tumor volume was determined with calipers. Formula: V=(r length*r width*r height)*π*4/3. Animals were weighed 2×/week. Tumor volumes were determined every 3 to 4 days following tumor implant (total of ˜20 measurements) and on day of euthanasia. Photo images of tumors were obtained at 2, 3 and 4 weeks post implantation and on day of euthanasia. Animals were euthanized once the tumor reached a size of 3,000 mm^3 or up to the point of significant tumor ulceration. At the time of euthanasia, tumors were isolated and halved. […] The second half of the tumor was fixed in formalin. Two H&E stained slides/tumor were prepared (up to 4 tumor/group were processed).
Tumor tissue was fixed before H&E and IHC staining. Bladder tissue sections were deparaffinized and processed by standard H&E and IHC staining. At least four tumors per treatment group were processed.

[5] = Solubility of the active in the receptor fluid; type: physicochemical; conditions: not told, aqueous with cosolvent or surfactant or cyclodextrin; 96 wt % PBS at pH 7.4 and 4 wt % hydroxyl propyl beta cyclodextrin
Protocol: The receptor fluid was degassed by filtering the receptor fluid through a ZapCap CR 0.2 μm membrane while pulling vacuum. The filtered receptor fluid was stirred for an additional 20 minutes while maintaining vacuum to ensure complete degassing.

[6] = IV Docetaxel 3 cycles, 2 animals

SMILES: CC(=O)O[C@@]12CO[C@@H]1C[C@H](O)[C@@]1(C)C(=O)[C@H](O)C3=C(C)[C@@H](OC(=O)[C@H](O)[C@@H](NC(=O)OC(C)(C)C)c4ccccc4)C[C@@](O)([C@@H](OC(=O)c4ccccc4)[C@H]21)C3(C)C [Docetaxel, docetaxel]
- Histology overview (H&E) vs vehicle control (786-O cell line [1]; Docetaxel (IV) 3 cycles, FIG. 93): no difference
- morphologic and immunohistochemical appearance (786-O cell line [1]; IV docetaxel, two cases): identical morphologic and immunohistochemical appearance to that seen in the control and IT vehicle groups
- Size of residual viable carcinoma on slide: number of animals with >10 mm (786-O cell line [1]; IV docetaxel, 2 animals): 2
- residual viable carcinoma nodules, size (786-O cell line [1]; both IV docetaxel animals): greater than 10 mm
- tumor growth vs vehicle control (786-O cell line [2]): partial tumor growth inhibition compared to vehicle control
- Tumor volume over time ([3]; Docetaxel IV 30 mg/kg, 3 weekly cycles, 61 days): decreased initially for dosages of nDoce IT 1 cycle and Docetaxel IV 3 cycles, but subsequently increased
- Effectiveness in relation to initial tumor size ([3]; Docetaxel IV 3 cycles): somewhat effective at treating small tumors, but not very effective in treating large tumors
- Histological overview, general observations (H&E) ([4]; Docetaxel Solution IV 3 cycles): many viable appearing tumor masses with some macrophage and occasional lymphocytic response along with some tumor necrosis
- Immunohistochemistry overview, F4/80 stain ([4]; FIG. 87, IV Docetaxel 3 cycles): Very little tumor cell destruction and few scattered mononuclear immune cells among vast number of viable tumor cells
- # containing at least one TLS [4, 6]: 0
- Maximum size of viable invasive carcinoma on the slide >10 mm (number of animals) [4, 6]: 2*
- Percentage of tumor showing necrosis: number of animals with 11-50% [4, 6]: 1
- Percentage of tumor showing necrosis: number of animals with 50-90% [4, 6]: 1
- Macrophage infiltrate density Mild (number of animals) ([4]; IV Docetaxel 3 cycles, H&E and CD68): 2
- Maximum tumor size on slide ([4]; IV Docetaxel 3 cycles, individual animals B1, B3): 15 mm and 11 mm
- TLSs ([4]; IV docetaxel 3 cycles): There were no TLSs present
- tumor mass maximum dimension on the slide, individual cases ([4]; IV docetaxel 3 cycles): 11 mm and 15 mm
- geographic tumor cell necrosis, share of tumor area, individual cases ([4]; IV docetaxel 3 cycles, cases B1 and B3): 11-50% and 50-90%

- solubility [5]: ~0.4 µg/mL (≈ 0.468 µM)
SMILES: CC(=O)O[C@H]1C(=O)[C@@]2(C)[C@H]([C@H](OC(=O)c3ccccc3)[C@]3(O)C[C@H](OC(=O)[C@H](O)[C@@H](NC(=O)c4ccccc4)c4ccccc4)C(C)=C1C3(C)C)[C@]1(OC(C)=O)CO[C@@H]1C[C@@H]2O [paclitaxel]

SMILES: CC(=O)O[C@@]12CO[C@@H]1C[C@H](O)[C@@]1(C)C(=O)[C@H](O)C3=C(C)[C@@H](OC(=O)[C@H](O)[C@@H](NC(=O)OC(C)(C)C)c4ccccc4)C[C@@](O)([C@@H](OC(=O)c4ccccc4)[C@H]21)C3(C)C [Doce]
- Percentage of tissue showing necrosis: number of animals with 5-50% (786-O cell line [1]; IV Doce, 2 animals): 2
- Lymphohistiocytic infiltrate density: number of animals graded Mild (786-O cell line [1]; IV Doce, 2 animals, H/E and CD11b staining): 2
